# Assay results published in patent US9149440B2, “Nanoparticles for drug-delivery” (UNIVERSITY OF SOUTH FLORIDA, priority 2003, dated 2015).
# Columns and labels:
# [1] = Water solubility; assay type: physicochemical
# [2] = system: C. parapsilosis (ATCC 22019); assay: Antifungal agar well diffusion, zones of inhibition; assay type: cell-based; details: Lodderomyces parapsilosis, ATCC22019; 50 μg, 48 hours; read-out: zone of growth inhibition, standard
# [3] = system: C. glabrata (ATCC 15126); assay: as above; assay type: cell-based; details: Nakaseomyces glabratus, ATCC15126; 50 μg, 48 hours; read-out: zone of growth inhibition, standard
# [4] = system: C. kefyr; assay: as above; assay type: cell-based; details: Kluyveromyces marxianus; 50 μg, 48 hours; read-out: zone of growth inhibition, standard
# [5] = system: C. krusei (ATCC 14243); assay: as above; assay type: cell-based; details: Pichia kudriavzevii, ATCC14243; 50 μg, 48 hours; read-out: zone of growth inhibition, standard
# [6] = system: C. tropicalis; assay: as above; assay type: cell-based; details: Candida tropicalis; 50 μg, 48 hours; read-out: zone of growth inhibition, standard
# [7] = system: C. lusitaniae (ATCC 34449); assay: as above; assay type: cell-based; details: Clavispora lusitaniae, ATCC34449; 50 μg, 48 hours; read-out: zone of growth inhibition, standard
# Method: (§1) Antifungal testing of these nanoparticles was performed by Kirby-Bauer disc diffusion on agar plates against eight genera of fungi.
# [8] = system: C. utilis (ATCC 29950); assay: as above; assay type: cell-based; details: Williopsis jadinii, ATCC29950; 50 μg, 48 hours; read-out: zone of growth inhibition, standard
# Method: as §1
# [9] = system: C. albicans; assay: as above; assay type: cell-based; details: Candida albicans; 50 μg, 48 hours; read-out: zone of growth inhibition, standard
# Method: as §1
smiles,measurement,setting,value
C=CC(=O)OC(C)OC(=O)c1c2ccccc2cc2ccccc12 (stereo not shown),melting point,,66 to 68 °C
"C=CC(=O)C1C(=O)N(SC)C1c1ccccc1Cl (racemic) [N-methylthiolated β-lactam, 3-acryloyl-N-methylthio-4-(2-chlorophenyl)-2-azetidinone]",water solubility,[1],water-insoluble
Clc1ccccc1C(c1ccccc1)(c1ccccc1)n1ccnc1 [clotrimazole],zone of inhibition at 50 µg/disc,[2],32 mm
same,zone of inhibition at 50 µg/disc,[3],14 mm
same,zone of inhibition at 50 µg/disc,[4],37 mm
same,zone of inhibition at 50 µg/disc,[5],27 mm
same,zone of inhibition at 50 µg/disc,[6],20 mm
same,zone of inhibition at 50 µg/disc,[7],25 mm
same,zone of inhibition at 50 µg/disc,[8],24 mm
same,zone of inhibition at 50 µg/disc,[9],20 mm
